Measurements published in US20250018019A1, “TREATMENT OF INTERFERON DRIVEN INFLAMMATION” (The Provost, Fellows, Foundation Scholars and the other …, priority 2023, published 2025).
Counter-ions that a name gives are not always drawn.

What was measured:
Type in all cases: cell-based, mouse
BMDMs [1] = assay: Immunofluorescence, Mitotracker Red and dsRNA; settings: LPS 4 h
Method: (§1) All compounds used DMSO as a vehicle except for 4-hydroxy tamoxifen (EtOH), NAC (PBS), and AOAA for tracing experiments (Media). LPS was used at a concentration of 100 ng/ml for indicated timepoints (2, 3, 4, 6, 8, 24, 48 h). FHIN1 (10 or 20 μM), MMF (50 or 100 μM), DMF (25 μM), AOAA (5 mM), oligomycin (10 μM), CCCP (50 μM) NAC (1 mM), and IMT1 (10 μM) pre-treatments were performed for 3 h prior the addition of LPS. Cells were treated with valinomycin (10 nM) 15 mins before LPS stimulation. Anti-CD210 or IgG control (10 μg/ml) antibodies were added to cells 1 h prior to LPS stimulation. Recombinant mouse IL-10 protein (100 ng/ml) was added to cells at the same time as LPS. Cells were treated with IFN-B1 (220 ng/ml) for 3 h. Cells were treated with C-178 (1 μM) 1 h prior to LPS stimulation or transfection with 2′3′-cGAMP (1.5 μg/ml) for 4 hrs to achieve cGAS-STING activation. Cells were treated with ODN 2088 (1 μM) for 1 hr prior to LPS stimulation or transfection with CPG ODN 1826 (1.5 μg/ml) to achieve TLR9 activation. 3 different timepoints of 4-hydroxy tamoxifen (TAM) (600 nM or 2 μM) or EtOH treatment were performed-these are specified in the individual figure legends. For ‘48 h’ treatments EtOH/TAM was added on day 5 of 6 during the BMDM differentiation protocol. On day 6 they were plated with EtOH/TAM (left overnight) and treated the following day. For ‘72 h’ treatments EtOH/TAM was added on day […] of 6 during the BMDM differentiation protocol. On day 6 they were plated with EtOH/TAM (left overnight) and treated the following day. For ‘96 h’ treatments EtOH/TAM was added on day […] of 6 during the BMDM differentiation protocol. On day 6 they were plated with EtOH/TAM and treated 2 days later.
Cells were plated on 20 mm cover slips in 12-well plates. Cells were treated as required and Mitotracker Red CMXRos (100 nM, Thermo Fisher), was added to medium 30 mins prior to end of cell treatments. After 30 min incubation, cells were washed three times with warm PBS. Cells were subsequently fixed for 10 mins with 4% paraformaldehyde/PBS at 37° C. Cells were washed three times with PBS and permeabilized for 1 hour in block solution (1% BSA, 22.52 mg/ml glycine, 0.1% tween 20 in PBS). Anti-dsRNA antibody (Merck) was diluted 1/60 in block solution and incubated with cells overnight at room temperature. Cells were washed three times with PBS for 5 mins/wash. […] Images were analysed using the LAS X Life Science Microscope Software Platform (Leica). The same microscope instrument settings were used for all samples and all images were analysed using the same settings. […] Quantification of dsRNA or Mitotracker Red CMXRos signal intensity was performed using the measure function in ImageJ 1.53t (NIH).

BMDMs [2] = assay: Digitonin fractionation, qPCR of mtDNA and mtRNA
Method: as §1
BMDMs were plated at 0.5×10^6 cells/well and treated as desired. After treatment, cells were washed once with room temperature PBS, before being scraped on ice into ice cold PBS and pelleted at 500×g for 5 mins at 4° C. Supernatant was removed and discarded, and the pellet was resuspended in 400 μl extraction buffer (150 mM NaCl, 50 mM HEPES pH 7.4, 25 μg/ml digitonin). Samples were then placed in a rotating mixer at 4° C. for 10 mins before centrifugation at 2000×g at 4° C. for 5 mins. The resulting supernatant constituted the cytosolic fraction, from which RNA and DNA were isolated using an AllPrep DNA/RNA Mini Kit (Qiagen). Alternatively, the cytosolic fraction was concentrated using Strataclean Resin (Agilent) and analysed by western blot. The pellet constituted a fraction containing membrane-bound organelles which was lysed in RNA lysis buffer for RNA isolation or lysed in western blot lysis buffer for analysis by western blot. To determine the presence of mtRNA and mtDNA in the cytosol, qPCR was performed using primers specific for mitochondrial D-loop on cDNA which had been reverse-transcribed from RNA isolated from the cytosolic fraction (mtRNA) and on DNA isolated from the cytosolic fraction (mtDNA). In both cases, values were normalised using a housekeeping control gene (β-actin) amplified in cDNA which had been reverse-transcribed from RNA isolated from the membrane-bound fraction.

MAVS = MAVS oligomerisation; settings: BMDMs pre-treated, LPS 4 h
Method: BMDMs were plated at 1×10^6 cells/well in technical triplicate and treated as desired. After treatment, cells were washed twice with 200 μl cold PBS before being lysed in crosslinking lysis buffer (50 mM HEPES, 0.5% triton X-100, 1X protease inhibitor cocktail). Samples were placed on ice for 15 mins. Lysates were centrifuged for 15 mins at 6000×g at 4° C. and the supernatant was removed and frozen down as the ‘soluble fraction.’ 20 μl of the soluble fraction was mixed with 5 μl of sample lysis buffer (0.125 M Tris pH 6.8, 10% glycerol, 0.02% SDS, 5% DTT) and run on a 10% gel. The insoluble pellet was resuspended in HEPES (50 mM) and washed 3 times by centrifuging at 6000×g at 4° C. and removing the supernatant each time. After the final wash, the pellet was resuspended in 500 μl crosslinking buffer (50 mM HEPES, 150 mM NaCl) and disuccinimidyl suberate (DSS, Thermo Fisher, made up in anhydrous DMSO) was added to the final concentration of 2 mM. Immediately following the addition of DSS, the sample was inverted several times and incubated for 45 mins at 37° C. The sample was then centrifuged for 15 mins at 6000×g at 4° C., before the supernatant was removed and the pellet was resuspended in 30 μl sample lysis buffer. The resuspended ‘insoluble fraction’ was subsequently boiled for 5 mins at 95° C. before being run on a gel.

CCOC(=O)[C@@]12CCCC=C1N(Cc1ccc(-c3ccccc3)cc1)C(=O)[C@H]2CC(=O)NC [FHIN1, Fumarate hydratase-IN-1]
staining intensity of mitotracker RED (mtRED), MMP-dependent dye (BMDMs [1]; BMDMs pre-treated 3 h): increased staining intensity | dsRNA accumulation (immunofluorescence) (BMDMs [1]; BMDMs pre-treated, relative to DMSO control): accumulation | mtRNA in whole cell fraction (BMDMs [2]; BMDMs pre-treated, LPS 4 h): not in the whole cell fraction | mtDNA in cytosolic extracts (D-loop) (BMDMs [2]; digitonin-fractionated BMDMs): increase | mtRNA in cytosolic extracts (BMDMs [2]; digitonin-fractionated BMDMs): increased | MAVS oligomerisation (MAVS): observed MAVS oligomerisation
